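How tested: cells in 96-well plates exposed to compound for 48 hours at five concentrations. GI50 is the concentration that inhibits growth by half. TGI is the concentration that stops growth completely.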
What follows are compounds tested on SK-MEL-5 melanoma (assay: NCI-60 cell line screen, 48 h).
In the case of `Cc1nn(-c2ccc(Cl)cc2)c2nc3c(nc12)C(=O)c1ccccc1-3`, the GI50 is reported as > 100 µM and the TGI is reported as > 100 µM.
`O=C(Nc1ccncc1)C(=O)c1cn(S(=O)(=O)c2ccc(F)cc2)c2ccccc12` was tested, and the GI50 was 1.84 µM and the TGI was 16.3 µM.
With `COc1ccc(C(=O)/C=C/c2cc(-c3cc(OC)c(OC)c(OC)c3)n[nH]2)cc1OC` the GI50 was 1.65 µM and the TGI was 3.03 µM.
`O=C(c1ccccc1Br)C(F)(F)F` was tested, and the TGI was > 100 µM.
With `O=C1OCC2=C1C(c1cccc(Br)c1)c1cc3c(cc1N2CCO)CCC3` (stereo not given) the GI50 was 0.0482 µM and the TGI was 0.428 µM.
For `COc1ccc(NC(=O)/C(Cc2cc(=O)oc3cc(O)ccc23)=N\NC(C)(C)C)c(OC)c1`, the TGI was > 100 µM.
In the case of `O=C1/C(=C/c2ccc3c(c2)OCO3)SC2C=Nc3ccccc3N12` (stereo not given), the TGI is reported as > 100 µM.
`CCOc1ccc(NC(=O)C(=O)CC(=O)c2c(C)n([O-])c3ccccc3[n+]2=O)cc1` was tested, and the TGI was > 100 µM.
In the case of `Cc1cc(Cl)ccc1NC(=O)C(=O)Cc1nc2ccccc2o1`, the TGI is reported as > 100 µM.
`Oc1cccnc1[Se]` was tested, and the TGI was > 100 µM.
`O=C1C=CC(=O)c2cc3cc(CBr)ccc3cc21` was tested, and the GI50 was 14.9 µM and the TGI was 36 µM.
With `CCC(C)COC(=O)c1ccc(N=Cc2ccc(C=Nc3ccc(C(=O)OCC(C)CC)cc3)cc2)cc1` (stereo not given) the TGI was > 100 µM.
For `Cc1cc(N(CCC#N)CCC#N)ccc1N=Nc1ccc(C(=O)O)cc1`, the TGI was > 100 µM.
`[Cl][Hg][c]1cc[c]([Hg][Cl])o1` was tested, and the GI50 was 2.43 µM and the TGI was 9.6 µM.
`N#CC(C(=O)C(=O)C(C#N)c1ccc(Br)cc1)c1ccc(Br)cc1` (stereo not given) was tested, and the TGI was 27.5 µM.
For `COc1cccc(C2=NC(C(C)C)CO2)c1` (stereo not given), the TGI was > 100 µM.
`O=C1/C(=C/c2cccc(Cl)c2Cl)N=C(c2ccccc2)N1C1CC1` gave a GI50 of 11.4 µM and a TGI of 24.7 µM.
With `CCOC(=O)C(=[N+]=[N-])[Si](C)(C)C` the TGI was > 100 µM.
In the case of `CN(C)C(n1cc2c(c1)-c1ccc(Cl)cc1C(c1ccccc1F)=NC2)n1cc2c(c1)-c1ccc(Cl)cc1C(c1ccccc1F)=NC2`, the TGI is reported as > 100 µM.
For `CCCc1nc(NC#N)nc(C(=O)Nc2ccccc2)c1CC`, the TGI was > 100 µM.
`O=C(CCc1n[nH]c(=S)o1)Nc1ccccc1C(F)(F)F` was tested, and the TGI was > 100 µM.
In the case of `Cc1ccc(NC(=O)CCc2cc(C(C)(C)C)nc(=S)[nH]2)cc1C`, the TGI is reported as > 100 µM.
With `Cc1[nH]c2ccccc2c1C(=O)/C=C/c1ccccc1O` the TGI was > 100 µM.
In the case of `O=C(Nc1nc(=S)c2c(ncn2CCOC(=O)c2ccccc2)[nH]1)c1ccccc1`, the TGI is reported as > 100 µM.
Work on `COc1cccc2c1C(=O)c1c(O)c3c(c(O)c1C2=O)C[C@](O)(C(=O)CO)C[C@H]3O[C@@H]1C[C@@H](NC(=O)CCCCCN(C)C2(c3ccc(F)cc3)CC3CCC2C3)[C@H](O)[C@@H](C)O1` (stereo not given in full) yielded a GI50 of 7.65 µM and a TGI of 15.6 µM.
For `COc1ccc(CC2NCCc3c2[nH]c2ccccc32)cc1` (stereo not given), the TGI was > 100 µM.
`CCOc1ccc(NC(=O)CC#N)cc1` was tested, and the TGI was > 100 µM.
Work on `O=C(/C=C/c1cccc2ccccc12)c1ccccc1Cl` yielded a TGI of 30.8 µM.
`COc1ccc(Nc2nnc(-c3cc(O)ccc3O)s2)cc1` gave a GI50 of 10.3 µM and a TGI of 27.2 µM.
With `Cc1ccc(/C=C/C(=O)c2sc(-c3nc(C)c(C(=O)/C=C/c4ccc(C)cc4)s3)nc2C)cc1` the TGI was > 100 µM.
With `O=C1/C(=C/c2ccc(Cl)cc2)CCC1CCN1CCOCC1` (stereo not given) the TGI was > 100 µM.
For `Cn1cc(-c2csc(-c3c[nH]c4ccc(F)cc34)n2)c2cnccc21`, the GI50 was 1.65 µM and the TGI was 3.05 µM.
For `O=C1Nc2ccccc2/C1=N\[O-].O=C1Nc2ccccc2/C1=N\[O-].[Cu+2]`, the GI50 was > 100 µM and the TGI was > 100 µM.
With `CCC[CH2][Sn]([Cl])([CH2]CCC)[CH2]CCC` the GI50 was 0.192 µM and the TGI was 0.808 µM.
In the case of `CCOC(=O)Nc1ccc(C)c(NC(=O)OCC)c1`, the TGI is reported as > 100 µM.
For `O=c1ccn([C@H]2CSC[C@@H](CO)C2)c(=O)[nH]1`, the TGI was > 100 µM.
`C1CN2CCN3CCN4CCN1[P+]243` was tested, and the TGI was > 100 µM.

What follows are compounds tested on HOP-92 NSCLC (assay: NCI-60 cell line screen, 48 h).
`COc1cc(NCc2ccc3nc(N)nc(N)c3c2C)cc(OC)c1OC` (tested in a mixture with another compound) showed a GI50 of 0.0233 µM.
`COc1ccc(NC(=O)/C(Cc2cc(=O)oc3cc(O)ccc23)=N\NC(C)(C)C)c(OC)c1` was tested, and the TGI was > 100 µM.
With `O=C1/C(=C/c2ccc3c(c2)OCO3)SC2C=Nc3ccccc3N12` (stereo not given) the TGI was > 100 µM.
With `CCOc1ccc(NC(=O)C(=O)CC(=O)c2c(C)n([O-])c3ccccc3[n+]2=O)cc1` the TGI was > 100 µM.
For `Cc1cc(Cl)ccc1NC(=O)C(=O)Cc1nc2ccccc2o1`, the TGI was > 100 µM.
For `OCC1OC(c2nc(C3=NCCCN3)cs2)C(O)C1O` (stereo not given), the TGI was > 100 µM.
In the case of `Oc1cccnc1[Se]`, the TGI is reported as > 100 µM.
Work on `O=C1C=CC(=O)c2cc3cc(CBr)ccc3cc21` yielded a GI50 of 3.18 µM and a TGI of 9.93 µM.
`CCC(C)COC(=O)c1ccc(N=Cc2ccc(C=Nc3ccc(C(=O)OCC(C)CC)cc3)cc2)cc1` (stereo not given) was tested, and the TGI was > 100 µM.
In the case of `COc1cc(F)ccc1-c1ncnc(Nc2cccc(CS(C)(=N)=O)c2)n1` (stereo not given), the GI50 is reported as 0.671 µM and the TGI is reported as 4.19 µM.
`[Cl][Hg][c]1cc[c]([Hg][Cl])o1` was tested, and the GI50 was 1.77 µM and the TGI was 3.52 µM.
In the case of `CN(C)CC1CCCC/C1=N/OC(=O)c1ccc(Cl)cc1` (stereo not given), the TGI is reported as > 100 µM.
Compound `N#CC(C(=O)C(=O)C(C#N)c1ccc(Br)cc1)c1ccc(Br)cc1` (stereo not given) has a TGI of 26.4 µM.
For `CCOC(=O)C(=[N+]=[N-])[Si](C)(C)C`, the TGI was > 100 µM.
With `CCCc1nc(NC#N)nc(C(=O)Nc2ccccc2)c1CC` the TGI was > 100 µM.
`O=C(CCc1n[nH]c(=S)o1)Nc1ccccc1C(F)(F)F` was tested, and the TGI was > 100 µM.
With `COc1cc2c(cc1OCCCNC(=O)c1cccc3c(=O)c4ccccc4[nH]c13)N=C[C@@H]1CCCN1C2=O` the GI50 was < 0.01 µM and the TGI was 49.6 µM.
With `Cc1ccc(NC(=O)CCc2cc(C(C)(C)C)nc(=S)[nH]2)cc1C` the TGI was > 100 µM.
With `O=C(Nc1nc(=S)c2c(ncn2CCOC(=O)c2ccccc2)[nH]1)c1ccccc1` the TGI was > 100 µM.
`COc1cccc2c1C(=O)c1c(O)c3c(c(O)c1C2=O)C[C@](O)(C(=O)CO)C[C@H]3O[C@@H]1C[C@@H](NC(=O)CCCCCN(C)C2(c3ccc(F)cc3)CC3CCC2C3)[C@H](O)[C@@H](C)O1` (stereo not given in full) showed a GI50 of 5.36 µM and a TGI of 12.5 µM.
Compound `COc1ccc(CC2NCCc3c2[nH]c2ccccc32)cc1` (stereo not given) has a TGI of 58.6 µM.
`O=C(/C=C/c1cccc2ccccc12)c1ccccc1Cl` was tested, and the TGI was 26.4 µM.
In the case of `Cc1ccc(/C=C/C(=O)c2sc(-c3nc(C)c(C(=O)/C=C/c4ccc(C)cc4)s3)nc2C)cc1`, the TGI is reported as > 100 µM.
With `O=C1/C(=C/c2ccc(Cl)cc2)CCC1CCN1CCOCC1` (stereo not given) the TGI was > 100 µM.
In the case of `Cn1cc(-c2csc(-c3c[nH]c4ccc(F)cc34)n2)c2cnccc21`, the GI50 is reported as 1.49 µM and the TGI is reported as 3.09 µM.
`CCC[CH2][Sn]([Cl])([CH2]CCC)[CH2]CCC` gave a GI50 of 0.0452 µM and a TGI of 0.188 µM.
`CCOC(=O)Nc1ccc(C)c(NC(=O)OCC)c1` was tested, and the TGI was > 100 µM.
In the case of `O=c1ccn([C@H]2CSC[C@@H](CO)C2)c(=O)[nH]1`, the TGI is reported as > 100 µM.

These compounds were tested on MDA-MB-231 breast (assay: NCI-60 cell line screen, 48 h).
For `COc1cc(NCc2ccc3nc(N)nc(N)c3c2C)cc(OC)c1OC` (tested in a mixture with another compound), the GI50 was 0.0893 µM and the TGI was 55.2 µM.
With `Cc1nn(-c2ccc(Cl)cc2)c2nc3c(nc12)C(=O)c1ccccc1-3` the GI50 was 82.7 µM and the TGI was > 100 µM.
In the case of `O=C(Nc1ccncc1)C(=O)c1cn(S(=O)(=O)c2ccc(F)cc2)c2ccccc12`, the GI50 is reported as 5.97 µM and the TGI is reported as > 100 µM.
`COc1ccc(C(=O)/C=C/c2cc(-c3cc(OC)c(OC)c(OC)c3)n[nH]2)cc1OC` was tested, and the GI50 was 1.48 µM and the TGI was 3.06 µM.
In the case of `O=C(c1ccccc1Br)C(F)(F)F`, the TGI is reported as > 100 µM.
Work on `O=C1OCC2=C1C(c1cccc(Br)c1)c1cc3c(cc1N2CCO)CCC3` (stereo not given) yielded a GI50 of 0.191 µM and a TGI of 1.22 µM.
In the case of `Oc1cccnc1[Se]`, the TGI is reported as > 100 µM.
`O=C1C=CC(=O)c2cc3cc(CBr)ccc3cc21` was tested, and the GI50 was 1.95 µM and the TGI was 8.09 µM.
In the case of `COc1cc(F)ccc1-c1ncnc(Nc2cccc(CS(C)(=N)=O)c2)n1` (stereo not given), the GI50 is reported as 1.74 µM and the TGI is reported as > 100 µM.
Work on `[Cl][Hg][c]1cc[c]([Hg][Cl])o1` yielded a GI50 of 1.9 µM and a TGI of 5.09 µM.
Compound `O=C1/C(=C/c2cccc(Cl)c2Cl)N=C(c2ccccc2)N1C1CC1` has a GI50 of 8.05 µM and a TGI of 18.3 µM.
`CN(C)C(n1cc2c(c1)-c1ccc(Cl)cc1C(c1ccccc1F)=NC2)n1cc2c(c1)-c1ccc(Cl)cc1C(c1ccccc1F)=NC2` was tested, and the TGI was > 100 µM.
